According to patent US11325889B2, “Substituted 3-((3-aminophenyl)amino)piperidine-2,6-dione compounds, compositions thereof, and methods of treatment therewith” (Celgene Corporation, priority 2018, dated 2022):

Target: T1, AR protein in VCaP cells (Homo sapiens, UniProt P10275)
T1 construct: endogenous in cells; host or cells: VCaP cells
T1 sequence (P10275 1-920): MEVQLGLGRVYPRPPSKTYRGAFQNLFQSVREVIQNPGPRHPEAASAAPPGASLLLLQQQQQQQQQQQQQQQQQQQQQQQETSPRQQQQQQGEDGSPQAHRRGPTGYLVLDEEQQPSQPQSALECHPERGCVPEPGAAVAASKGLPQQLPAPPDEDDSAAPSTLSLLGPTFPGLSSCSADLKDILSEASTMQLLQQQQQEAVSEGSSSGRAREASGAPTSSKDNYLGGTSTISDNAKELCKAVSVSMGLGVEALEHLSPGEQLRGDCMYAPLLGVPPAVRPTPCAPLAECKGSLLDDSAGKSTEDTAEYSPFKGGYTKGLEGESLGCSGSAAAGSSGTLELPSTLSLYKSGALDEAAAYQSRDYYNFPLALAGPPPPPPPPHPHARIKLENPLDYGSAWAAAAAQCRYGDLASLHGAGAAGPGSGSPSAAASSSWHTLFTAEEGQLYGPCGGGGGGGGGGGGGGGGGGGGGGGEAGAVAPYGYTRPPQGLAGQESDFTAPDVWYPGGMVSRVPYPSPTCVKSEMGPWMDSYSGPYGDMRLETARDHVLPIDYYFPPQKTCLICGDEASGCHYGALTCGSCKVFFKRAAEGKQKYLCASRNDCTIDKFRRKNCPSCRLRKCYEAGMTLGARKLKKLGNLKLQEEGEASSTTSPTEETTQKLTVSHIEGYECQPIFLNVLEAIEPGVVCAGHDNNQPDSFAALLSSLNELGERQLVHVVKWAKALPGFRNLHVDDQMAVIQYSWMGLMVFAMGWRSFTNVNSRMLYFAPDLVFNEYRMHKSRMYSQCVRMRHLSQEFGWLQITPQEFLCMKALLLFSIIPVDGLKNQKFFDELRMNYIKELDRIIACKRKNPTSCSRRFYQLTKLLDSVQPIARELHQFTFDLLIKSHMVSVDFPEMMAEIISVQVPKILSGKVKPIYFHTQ
Assay: VCAP AR Degradation Assay (AR ELISA, 24 h)
Type: cell-based
Conditions: for Y (lowest measured AR level normalized to DMSO control): AR degradation efficiency; for DC50: concentration of compound when AR level = 50% of DMSO control, read-out: DC50
In short: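 VCaP cells in DMEM with 8% FBS exposed for 24 h at 37° C to a 10-point, 1:3 series (final top concentration […]; 0.1% DMSO control). Lysate AR measured by sandwich ELISA and normalized to DMSO as percent of control. DC50, EC50 and lowest AR level (Y) from four-parameter logistic fit.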

Structure (SMILES) | Y (lowest measured AR level normalized to DMSO control) | DC50
CCc1cc(N2C(=S)N(c3ccc(C#N)c(C(F)(F)F)c3)C(=O)C2(C)C)ccc1OCCC1CCN([C@H](C)C(=O)Nc2cccc(NC3CCC(=O)NC3=O)c2)CC1 (stereo partly drawn) [Cmpd 42, (2R)-2-(4-(2-(4-(3-(4-cyano-3-(trifluoromethyl)phenyl)-5,5-dimethyl-4-oxo-2-thioxoimidazolidin-1-yl)-2-ethylphenoxy)ethyl)piperidin-1-yl)-N-(3-(2,6-dioxopiperidin-3-ylamino)phenyl)propanamide] | ** (25%<Y<=35%) | 100 to 500 nM
CCc1cc(N2C(=S)N(c3ccc(C#N)c(C(F)(F)F)c3)C(=O)C2(C)C)ccc1OCCC1CCN([C@@H](C)C(=O)Nc2cc(Cl)cc(NC3CCC(=O)NC3=O)c2)CC1 (stereo partly drawn) [Cmpd 26, (2S)-N-(3-chloro-5-(2,6-dioxopiperidin-3-ylamino)phenyl)-2-(4-(2-(4-(3-(4-cyano-3-(trifluoromethyl)phenyl)-5,5-dimethyl-4-oxo-2-thioxoimidazolidin-1-yl)-2-ethylphenoxy)ethyl)piperidin-1-yl)propanamide] | * (0<Y<=25%) | 100 to 500 nM
CC(F)(F)c1cc(N2C(=S)N(c3cnc(C#N)c(C(F)(F)F)c3)C(=O)C2(C)C)ccc1OCCC1CCN(CC(=O)Nc2cc(Cl)cc(NC3CCC(=O)NC3=O)c2)CC1 (stereo not shown) [Cmpd 24, N-(3-chloro-5-(2,6-dioxopiperidin-3-ylamino)phenyl)-2-(4-(2-(4-(3-(6-cyano-5-(trifluoromethyl)pyridin-3-yl)-5,5-dimethyl-4-oxo-2-thioxoimidazolidin-1-yl)-2-(1,1-difluoroethyl)phenoxy)ethyl)piperidin-1-yl)acetamide] | * (0<Y<=25%) | 100 to 500 nM
CCc1cc(N2C(=S)N(c3ccc(C#N)c(C(F)(F)F)c3)C(=O)C23CCC3)ccc1OCCC1CCN([C@@H](C)C(=O)Nc2cc(NC3CCC(=O)NC3=O)ccc2F)CC1 (stereo partly drawn) [Cmpd 74, (2S)-2-(4-(2-(4-(7-(4-cyano-3-(trifluoromethyl)phenyl)-8-oxo-6-thioxo-5,7-diazaspiro[3.4]octan-5-yl)-2-ethylphenoxy)ethyl)piperidin-1-yl)-N-(5-(2,6-dioxopiperidin-3-ylamino)-2-fluorophenyl)propanamide] | ** (25%<Y<=35%) | 100 to 500 nM
CC1(C)C(=O)N(c2ccc(C#N)c(C(F)(F)F)c2)C(=S)N1c1ccc(OC2CCN(CC(=O)Nc3cccc(NC4CCC(=O)NC4=O)c3)CC2)c(F)c1 (stereo not shown) [Cmpd 1, 2-(4-(4-(3-(4-cyano-3-(trifluoromethyl)phenyl)-5,5-dimethyl-4-oxo-2-thioxoimidazolidin-1-yl)-2-fluorophenoxy)piperidin-1-yl)-N-(3-(2,6-dioxopiperidin-3-ylamino)phenyl)acetamide] | ** (25%<Y<=35%) | < 100 nM
CC(C)c1cc(N2C(=S)N(c3ccc(C#N)c(C(F)(F)F)c3)C(=O)C2(C)C)ccc1OCC[C@@H]1CCN(CC(=O)Nc2cccc(NC3CCC(=O)NC3=O)c2)[C@H](C)C1 (stereo partly drawn) [Cmpd 91, 2-((2R,4R)-4-(2-(4-(3-(4-cyano-3-(trifluoromethyl)phenyl)-5,5-dimethyl-4-oxo-2-thioxoimidazolidin-1-yl)-2-isopropylphenoxy)ethyl)-2-methylpiperidin-1-yl)-N-(3-(2,6-dioxopiperidin-3-ylamino)phenyl)acetamide] | ** (25%<Y<=35%) | 500 to 1000 nM
CCc1cc(N2C(=S)N(c3ccc(C#N)c(C(F)(F)F)c3)C(=O)C23CCC3)ccc1OCCC1CCN([C@H](C)C(=O)Nc2cccc(NC3CCC(=O)NC3=O)c2)CC1 (stereo partly drawn) [Cmpd 60, (2R)-2-(4-(2-(4-(7-(4-cyano-3-(trifluoromethyl)phenyl)-8-oxo-6-thioxo-5,7-diazaspiro[3.4]octan-5-yl)-2-ethylphenoxy)ethyl)piperidin-1-yl)-N-(3-(2,6-dioxopiperidin-3-ylamino)phenyl)propanamide] | ** (25%<Y<=35%) | 100 to 500 nM
CCc1cc(N2C(=S)N(c3ccc(C#N)c(C(F)(F)F)c3)C(=O)C2(C)C)ccc1OC1CCN(CC(=O)Nc2cc(Cl)cc(NC3CCC(=O)NC3=O)c2)CC1 (stereo not shown) [Cmpd 49, N-(3-chloro-5-(2,6-dioxopiperidin-3-ylamino)phenyl)-2-(4-(4-(3-(4-cyano-3-(trifluoromethyl)phenyl)-5,5-dimethyl-4-oxo-2-thioxoimidazolidin-1-yl)-2-ethylphenoxy)piperidin-1-yl)acetamide] | ** (25%<Y<=35%) | 100 to 500 nM
CCc1cc(N2C(=S)N(c3cnc(C#N)c(C(F)(F)F)c3)C(=O)C2(C)C)ccc1OCCC1CCN([C@H](C)C(=O)Nc2cc(Cl)cc(NC3CCC(=O)NC3=O)c2)CC1 (stereo partly drawn) [Cmpd 25, (2R)-N-(3-chloro-5-(2,6-dioxopiperidin-3-ylamino)phenyl)-2-(4-(2-(4-(3-(6-cyano-5-(trifluoromethyl)pyridin-3-yl)-5,5-dimethyl-4-oxo-2-thioxoimidazolidin-1-yl)-2-ethylphenoxy)ethyl)piperidin-1-yl)propanamide] | * (0<Y<=25%) | < 100 nM
CCc1cc(N2C(=S)N(c3cnc(C#N)c(C(F)(F)F)c3)C(=O)C23CCC3)ccc1OCCC1CCN(CC(=O)Nc2cc(Cl)cc(NC3CCC(=O)NC3=O)c2)CC1 (stereo not shown) [Cmpd 27, N-(3-chloro-5-(2,6-dioxopiperidin-3-ylamino)phenyl)-2-(4-(2-(4-(7-(6-cyano-5-(trifluoromethyl)pyridin-3-yl)-8-oxo-6-thioxo-5,7-diazaspiro[3.4]octan-5-yl)-2-ethylphenoxy)ethyl)piperidin-1-yl)acetamide] | * (0<Y<=25%) | < 100 nM
CCc1cc(N2C(=S)N(c3ccc(C#N)c(C(F)(F)F)c3)C(=O)C23CCC3)ccc1OCCC1CCN(CC(=O)Nc2cccc(NC3CCC(=O)NC3=O)c2)CC1 (stereo not shown) [Cmpd 43, 2-(4-(2-(4-(7-(4-cyano-3-(trifluoromethyl)phenyl)-8-oxo-6-thioxo-5,7-diazaspiro[3.4]octan-5-yl)-2-ethylphenoxy)ethyl)piperidin-1-yl)-N-(3-(2,6-dioxopiperidin-3-ylamino)phenyl)acetamide] | * (0<Y<=25%) | < 100 nM
